Measurements from article PMC4929166, “Pharmacological evaluation of synthetic cannabinoids identified as constituents of spice” (Forensic Toxicology, 2016).
Read-outs that look alike come from different tables or passages of the source.

Columns and labels:
[1] = molecular target: T1, CB2 receptor (Homo sapiens, UniProt P34972); assay: cAMP accumulation assay in CHO cells expressing CB2; type: cell-based; parameters: expressed in transfected cells; host or cells: CHO cells; conditions: cAMP accumulation, forskolin 10 µM, normalized to CP55,940; for efficacy at CB2 receptor (in words): test concentration 1 µM or 10 µM
[2] = molecular target: T2, CB1 receptor (Homo sapiens, UniProt P21554); assay: biochemical; type: binding; parameters: expressed in transfected cells; host or cells: CHO cells (membrane preparation); conditions: for CB1 selectivity Ki CB2/KiCB1: Table S1, selectivity index from Ki values; for Ki: versus 0.1 nM [3H]CP55,940, CHO cell membranes, mean ± SEM of three to five experiments, read-out: Ki ± SEM Human CB1
[3] = molecular target: T3, human GPR18 (Homo sapiens, UniProt Q14330); assay: β-Arrestin recruitment assay (PathHunter) at GPR18; type: cell-based; conditions: for Human GPR18 % activation: percent in brackets beside EC50 >10 µM; for Human GPR18 % inhibition: percent in brackets beside IC50
T3 construct: β-galactosidase enzyme fragment (PathHunter complementation tag)
T3 sequence (Q14330 1-331): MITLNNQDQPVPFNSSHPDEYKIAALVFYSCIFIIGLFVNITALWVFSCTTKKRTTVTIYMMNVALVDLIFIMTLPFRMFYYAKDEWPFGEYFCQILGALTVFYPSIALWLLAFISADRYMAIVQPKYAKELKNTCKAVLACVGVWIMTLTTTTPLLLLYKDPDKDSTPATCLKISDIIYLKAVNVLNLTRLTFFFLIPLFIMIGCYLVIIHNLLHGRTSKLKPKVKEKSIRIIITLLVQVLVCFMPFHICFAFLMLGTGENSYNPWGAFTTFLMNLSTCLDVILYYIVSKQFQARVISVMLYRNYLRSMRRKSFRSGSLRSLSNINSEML
Description: (§1) Recruitment of β-arrestin to the respective receptor was detected by using β-galactosidase enzyme fragment complementation technology (β-arrestin PathHunter™ assay, DiscoverX, Fremont, CA, USA) as previously described. Data were obtained from three independent experiments, performed in duplicates. Data were analyzed using Graph Pad Prism Version 4.02 (San Diego, CA, USA).

[4] = molecular target: T4, human GPR55 (Homo sapiens, UniProt Q9Y2T6); assay: β-Arrestin recruitment assay (PathHunter) at GPR55; type: cell-based; conditions: for IC50: antagonist mode; for Human GPR55 % activation: percent in brackets beside EC50 >10 µM; for Human GPR55 % inhibition: percent in brackets beside IC50
T4 construct: β-galactosidase enzyme fragment (PathHunter complementation tag)
Description: as §1

[5] = molecular target: T2, CB1 receptor; assay: cell-based; type: cell-based; parameters: expressed in transfected cells; host or cells: CHO cells; conditions: cAMP accumulation, forskolin 10 µM; test concentration 1 µM or 10 µM; normalized to CP55,940
[6] = molecular target: T1, CB2 receptor; assay: biochemical; type: binding; parameters: expressed in transfected cells; host or cells: CHO cells (membrane preparation); conditions: for Ki: versus 0.1 nM [3H]CP55,940, CHO cell membranes, mean ± SEM of three to five experiments, read-out: Ki ± SEM Human CB2
[7] = tested on: Human CB1; conditions: read-out: EC50 Human CB1 (literature, functional assay) (converted), cited from earlier work
[8] = tested on: Human CB2; conditions: read-out: EC50 Human CB2 (literature, functional assay) (converted), cited from earlier work
[9] = Human GPR55 IC50, β-arrestin assay
[10] = Table S1, selectivity index from Ki values

T1 sequence (P34972 whole entry): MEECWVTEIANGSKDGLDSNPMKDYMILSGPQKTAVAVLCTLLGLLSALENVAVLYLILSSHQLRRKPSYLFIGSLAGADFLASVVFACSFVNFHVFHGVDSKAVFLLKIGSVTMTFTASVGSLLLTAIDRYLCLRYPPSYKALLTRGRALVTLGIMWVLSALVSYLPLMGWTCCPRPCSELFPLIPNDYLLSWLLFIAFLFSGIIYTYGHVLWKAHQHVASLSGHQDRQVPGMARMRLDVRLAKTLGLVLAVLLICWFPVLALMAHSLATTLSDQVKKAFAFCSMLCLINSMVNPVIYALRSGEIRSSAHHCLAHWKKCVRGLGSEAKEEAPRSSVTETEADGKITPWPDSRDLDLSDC
T2 sequence (P21554 whole entry): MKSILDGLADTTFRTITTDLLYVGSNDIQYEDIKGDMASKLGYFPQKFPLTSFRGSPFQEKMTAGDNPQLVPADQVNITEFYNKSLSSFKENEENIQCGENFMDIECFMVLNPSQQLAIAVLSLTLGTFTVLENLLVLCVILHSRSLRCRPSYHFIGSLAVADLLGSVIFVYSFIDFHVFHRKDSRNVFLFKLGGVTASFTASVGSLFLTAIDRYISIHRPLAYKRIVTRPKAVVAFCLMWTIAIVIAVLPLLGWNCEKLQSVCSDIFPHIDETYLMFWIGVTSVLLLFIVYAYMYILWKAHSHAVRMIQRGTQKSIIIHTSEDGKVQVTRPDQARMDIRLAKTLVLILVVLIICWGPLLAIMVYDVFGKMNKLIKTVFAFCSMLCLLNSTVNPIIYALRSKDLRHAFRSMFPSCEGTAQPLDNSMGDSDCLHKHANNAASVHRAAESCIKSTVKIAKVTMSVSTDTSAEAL
T4 sequence (Q9Y2T6 whole entry, the tested form may be a part): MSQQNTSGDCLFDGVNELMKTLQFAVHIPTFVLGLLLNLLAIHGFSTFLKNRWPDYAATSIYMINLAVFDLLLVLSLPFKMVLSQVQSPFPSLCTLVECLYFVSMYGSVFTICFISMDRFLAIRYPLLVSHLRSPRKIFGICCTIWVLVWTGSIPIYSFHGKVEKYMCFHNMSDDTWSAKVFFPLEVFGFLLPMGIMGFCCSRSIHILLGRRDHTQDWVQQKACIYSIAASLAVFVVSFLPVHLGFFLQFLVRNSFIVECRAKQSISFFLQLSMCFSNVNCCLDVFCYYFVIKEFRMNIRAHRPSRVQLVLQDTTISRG

Compound	CB1 selectivity Ki CB2/KiCB1 [2]	Ki [2] [nM]	EC50 [3] [nM]	IC50 [3] [nM]	Human GPR18 % activation ([3]; β-arrestin assay) [%]	Human GPR18 % inhibition ([3]; β-arrestin assay) [%]	EC50 [4] [nM]	IC50 [4, 9] [nM]	Human GPR55 % activation ([4]; β-arrestin assay) [%]	Human GPR55 % inhibition ([4]; β-arrestin assay) [%]	efficacy at CB1 receptor (in words) [5]	CB2 selectivity Ki CB1/KiCB2 [6, 10]	Ki [6] [nM]	EC50 ([7]; ref Banister et al. [28]) [nM]	EC50 ([8]; ref Banister et al. [28]) [nM]	further results
CCCCCc1cc(O)c2c(c1)OC(C)(C)[C@@H]1CCC(C)=C[C@@H]21 [Compound 1, Δ^9-tetrahydrocannabinol, reference compound]																activation of CB2 receptor compared to full agonist CP55,940 [1]: 60–70%
O=C(Nc1ccc2ccccc2c1)c1cn(CCCCCF)c2ccccc12 [Compound 7, 5F-NNEI-2-naphthyl-isomer]	1.0	235 ± 15	> 10000	> 10000	9	5	> 10000	> 10000	19	20	lower efficacy than Δ^9-THC	1.0	226 ± 24			fold decrease of affinity when naphthyl is linked in 2-position ([2]; CB1, compared with 5F-NNEI (5)): about 100 fold; efficacy at CB2 receptor (in words) [1]: lower efficacy than Δ^9-THC; inhibition at 30 µM ([6]; at 30 µM, read-out: Maximal inhibition of radioligand binding, human CB2): 80%
CCCCCn1nc(C(=O)Nc2cccc3ccccc23)c2ccccc21 [Compound 8, MN-18]	0.9	3.86 ± 0.9	> 10000	> 10000	2	37	> 10000	> 10000	27	35	lower efficacy than Δ^9-THC	1.1	3.47 ± 0.89			efficacy at CB2 receptor (in words) [1]: lower efficacy than Δ^9-THC
CCCCCn1cc(C(=O)NCc2ccccc2)c2ccccc21 [Compound 12, SDB-006]	3.5	53 ± 1.1	> 10000	> 10000	−9	22	> 10000	> 10000	−5	36			188 ± 38	134	19	
O=C(NCc1ccccc1)c1cn(CCCCCF)c2ccccc12 [Compound 13, 5F-SDB-006]	6.0	71.9 ± 13.5	> 10000	> 10000	13	−24	> 10000	> 10000	−3	11			430 ± 73	50	123	
CCCCCn1cc(C(=O)NC23CC4CC(CC(C4)C2)C3)c2ccccc21 [Compound 15, APICA]		6.52 ± 3.73	> 10000	> 10000	8	44	> 10000	4770 ± 1690	11				1.22 ± 0.14	128	29	CB2 selectivity Ki CB1/KiCB2 [6]: 5.3
O=C(NC12CC3CC(CC(C3)C1)C2)c1cn(CCCCCF)c2ccccc12 [Compound 16, STS-135 (5F-APICA)]		2.51 ± 0.35	> 10000	> 10000	−2	30	> 10000	3410 ± 470	1			3.2	0.794 ± 0.071	51	13	
O=C(Oc1cccc2ccccc12)c1cn(CCCCCF)c2ccccc12 [Compound 19, NM-2201]	2.2	0.332 ± 0.107	> 10000	> 10000	−8	32	> 10000	> 10000	17	23	higher efficacy than the full agonist CP55,940		0.732 ± 0.174			
CCCCCn1nc(C(=O)Oc2cccc3ccccc23)c2ccccc21 [Compound 22, SDB-005]		3.59 ± 0.89	> 10000	> 10000	15	24	> 10000	> 10000	8	23		1.4	2.61 ± 1.07	116	140	
O=C(Oc1cccc2ccccc12)c1nn(CCCCCF)c2ccccc12 [Compound 23, 5F-SDB-005]	1.3	2.58 ± 1.09	> 10000	> 10000	21	24	> 10000	> 10000	21	47			3.41 ± 1.34	148	136	
O=C(Oc1cccc2cccnc12)c1cn(CC2CCCCC2)c2ccccc12 [Compound 27, BB-22]	1.6	0.217 ± 0.056	> 10000	> 10000	2	18	> 10000	> 10000	9	34	higher efficacy than the full agonist CP55,940		0.338 ± 0.045			
CCc1ccc(C(=O)c2cn(CCCCCF)c3ccccc23)c2ccccc12 [Compound 31, EAM-2201]	1.0	0.38 ± 0.111	> 10000	> 10000	14	4	> 10000	1860 ± 160	−24		higher efficacy than the full agonist CP55,940	1.0	0.371 ± 0.052			
CCCCCn1cc(C(=O)C23CC4CC(CC(C4)C2)C3)c2ccccc21 [Compound 35, AB001]		33 ± 7.42	> 10000	~10000	−12	62	> 10000	~10000	−14	56		19.2	1.72 ± 0.15			EC50 ([7]; ref Banister et al. [46]): 35 nM; EC50 ([8]; ref Banister et al. [46]): 45 nM
CC1(C)C(C(=O)c2cn(CCCCCF)c3ccccc23)C1(C)C [Compound 38, XLR-11]		29.4 ± 11										48.4	0.608 ± 0.151	98	83	
CN1CCCCC(Cn2cc(C(=O)C3C(C)(C)C3(C)C)c3ccccc32)C1 (stereo not drawn) [Compound 44, AB005-azepane-isomer]		> 10000			11	−6			21	18	did not activate	47.2	212 ± 55			affinity for the CB1 receptor (in words) ([2]; at concentrations up to 10 µM): no affinity; inhibition of radioligand binding at human CB1 (percent in brackets) ([2]; printed in brackets beside Ki ~/>10,000 nM, concentration not given): 13%; EC50 ([3]; read-out: Human GPR18 EC50, β-arrestin assay, agonist mode): > 10000 nM; IC50 ([3]; read-out: Human GPR18 IC50, β-arrestin assay, antagonist mode): > 10000 nM; efficacy at CB2 receptor (in words) [1]: did not activate; EC50 ([4]; read-out: Human GPR55 EC50, β-arrestin assay, agonist mode): > 10000 nM; IC50 ([4]; read-out: Human GPR55 IC50, β-arrestin assay): > 10000 nM
